Assay results as given in US10519177B2, “Heterocyclic compounds and uses thereof” (Plexxikon Inc., priority 2013, dated 2019).
Read-outs that look alike come from different tables or passages of the source.

Assays:
[1] = tested on: bromodomain; assay: at least one of the bromodomain cell assays of Example 57; type: cell-based; conditions: at least one of the bromodomain cell assays described in Example 57; read-out: IC50 in at least one of the bromodomain cell assays
[2] = target: BRD4-BD12 (1-477) (Homo sapiens (Human), UniProt O60885); assay: Alphascreen binding assay BRD4-BD12; conditions: BRD4(1 2) H4; read-out: Biochemical activity (IC50 μM) BRD4(1 2) H4
Method in brief: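 First, compound was preincubated 1 h at room temperature with the His-tagged BRD4 protein (BD1 44-164 or tandem BD12 1-477) and acetylated H4 peptide. Next, donor and acceptor beads were added at 7.5 μg/ml final. After 30 min, AlphaScreen emission was recorded.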

[3] = tested on: MV-4-11 cells; assay: Oncology cell growth assay MV-4-11 (CellTiter Glo); type: cell-based; conditions: Homo sapiens, MV4-11, 72 h, read-out: Cell activity (IC50 μM) MV-4-11 3d-Growth
Method in brief: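 MV-4-11 AML cells (MLL-AF4), 3000 per well, exposed to 8-point 1:3 compound titration from 10 μM top concentration (0.2% DMSO) for 72 h. Viability by CellTiter Glo luminescence, normalized to DMSO controls; pIC50 from four-parameter curve fit.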

Compound	IC50 [1] [nM]	IC50 [2] [µM]	IC50 [3] [µM]	IC50 ([3]; MV-4-11, 3d growth) [µM]
COc1cc(-c2cn(CC3CCC(F)(F)CC3)c3cc(-c4c(C)noc4C)cnc23)ccc1C(=O)O [P-0404, 4-[1-[(4,4-difluorocyclohexyl)methyl]-6-(3,5-dimethylisoxazol-4-yl)pyrrolo[3,2-b]pyridin-3-yl]-2-methoxy-benzoic acid]	< 10000	< 1	< 1	
Cc1noc(C)c1-c1cnc2c(c1)c(Cc1ccccc1Cl)cn2-c1ccc(C(=O)O)cn1 [P-0428, 6-[3-[(2-chlorophenyl)methyl]-5-(3,5-dimethylisoxazol-4-yl)pyrrolo[2,3-b]pyridin-1-yl]pyridine-3-carboxylic acid]	< 10000	< 1		1 to 10
Cc1noc(C)c1-c1cnc2c(-c3cnn(C(F)F)c3)cn(C(CC#N)C3CCCC3)c2c1 (stereo not drawn) [P-0252, 3-cyclopentyl-3-[3-[1-(difluoromethyl)pyrazol-4-yl]-6-(3,5-dimethylisoxazol-4-yl)pyrrolo[3,2-b]pyridin-1-yl]propanenitrile]	< 10000	< 1	< 1	
[2H]C([2H])(C1CCC(F)(F)CC1)n1cc(-c2ccc(C(=O)OC)cc2)c2ncc(-c3c(C)noc3C)cc21 [P-0538, methyl 4-[1-[dideuterio-(4,4-difluorocyclohexyl)methyl]-6-(3,5-dimethylisoxazol-4-yl)pyrrolo[3,2-b]pyridin-3-yl]benzoate]	< 10000	< 1		< 1
[2H]C([2H])(C1CC(F)(F)C1)n1cc(-c2cn[nH]c2)c2ncc(-c3c(C)noc3C)cc21 [P-0255, 4-[1-[dideuterio-(3,3-difluorocyclobutyl)methyl]-3-(1H-pyrazol-4-yl)pyrrolo[3,2-b]pyridin-6-yl]-3,5-dimethyl-isoxazole]	< 10000	< 1	< 1	
Cc1noc(C)c1-c1cnc2c(-c3ccc4[nH]ncc4c3)cn(CC3(F)CCCCC3)c2c1 [P-0499, 4-[1-[(1-fluorocyclohexyl)methyl]-3-(1H-indazol-5-yl)pyrrolo[3,2-b]pyridin-6-yl]-3,5-dimethyl-isoxazole]	< 10000	< 1		< 1
Cc1noc(C)c1-c1cnc2c(-c3ccc(C#N)cc3)cn(C(c3ccccn3)c3ccccn3)c2c1 [P-0592, 4-[1-[bis(2-pyridyl)methyl]-6-(3,5-dimethylisoxazol-4-yl)pyrrolo[3,2-b]pyridin-3-yl]benzonitrile]	< 10000	< 1		< 1
[2H]C([2H])(C1CCC(F)(F)CC1)n1cc(-c2cnn(C)c2C)c2ncc(-c3c(C)noc3C)cc21 [P-0338, 4-[1-[dideuterio-(4,4-difluorocyclohexyl)methyl]-3-(1,5-dimethylpyrazol-4-yl)pyrrolo[3,2-b]pyridin-6-yl]-3,5-dimethyl-isoxazole]	< 10000	< 1	< 1	
Cc1noc(C)c1-c1cnc2c(-c3cnn(CC(F)(F)F)c3)cn(Cc3ccc(Cl)cc3)c2c1 [P-0365, 4-[1-[(4-chlorophenyl)methyl]-3-[1-(2,2,2-trifluoroethyl)pyrazol-4-yl]pyrrolo[3,2-b]pyridin-6-yl]-3,5-dimethyl-isoxazole]	< 10000	< 1	< 1	
Cc1noc(C)c1-c1cnc2c(-c3cn[nH]c3)cn(CC3CCC(F)(F)CC3)c2c1 [P-0392, 4-[1-[(4,4-difluorocyclohexyl)methyl]-3-(1H-pyrazol-4-yl)pyrrolo[3,2-b]pyridin-6-yl]-3,5-dimethyl-isoxazole]	< 10000	< 1	< 1	
CCOC(=O)c1ccc(-c2cn(CC3CCC(F)(F)CC3)c3cc(-c4c(C)noc4C)cnc23)cc1 [P-0537, ethyl 4-[1-[(4,4-difluorocyclohexyl)methyl]-6-(3,5-dimethylisoxazol-4-yl)pyrrolo[3,2-b]pyridin-3-yl]benzoate]	< 10000	< 1		< 1
